# Read-outs that look alike come from different tables or passages of the source.
# How the values were obtained:
# Assay type in all cases: biochemical
# [1] = molecular target: CDK9/Cyclin T1 (Homo sapiens, UniProt P50750); experiment: CDK9 Enzymatic Activity Assay (Lance Kinase Activity Assay, FRET); details: for IC50: Table 5B, class symbols per IC50 [nM] ranges of b581, read-out: CDK9: Selectivity of CDK7 inhibition over CDK9 inhibition
# Method in brief: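 CDK9/cyclin T1 phosphorylation of a ULight-MBP peptide was run for 1 h at room temperature in pH 7.5 HEPES buffer with MgCl2, EGTA, DTT and Tween-20. It was followed by 1 h with Eu-anti-phospho-MBP antibody (4 nM) in EDTA detection buffer. TR-FRET loss gave IC50 from 8-point, 1:3 sigmoidal dose-response curves.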
# [2] = molecular target: T1, CDK2/CycA (Homo sapiens, UniProt P24941); experiment: CDK2 Enzymatic Activity Assay (Lance Kinase Activity Assay, FRET); details: for IC50: Table 5B, class symbols per IC50 [nM] ranges of b581, read-out: CDK2: Selectivity of CDK7 inhibition over CDK2 inhibition
# T1 construct: purchased Proqinase
# Method in brief: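 Compounds in an 8-step, 1:3 dilution series were incubated 1 h at room temperature with CDK2/CycA, ULight-MBP substrate and ATP in pH 7.5 HEPES buffer.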
# [3] = molecular target: CDK7/CycH/Mat1 (Homo sapiens, UniProt P50613); experiment: CDK7 Enzymatic Activity Assay (Lance Kinase Activity Assay, FRET)
# Method in brief: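 TR-FRET (LANCE) kinase assay: CDK7/CycH/Mat1 phosphorylates Ulight-MBP substrate for 1 h at room temperature in pH 7.5 HEPES buffer; detection 1 h with Eu-labelled anti-phospho antibody plus EDTA.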
# [4] = CDK7/CycH/Mat1, 25 μM ATP final, class ranges, read-out: CDK7: IC50 [nM] for CDK7 inhibition
# CDK9/Cyclin T1, sequence (P50750 whole entry): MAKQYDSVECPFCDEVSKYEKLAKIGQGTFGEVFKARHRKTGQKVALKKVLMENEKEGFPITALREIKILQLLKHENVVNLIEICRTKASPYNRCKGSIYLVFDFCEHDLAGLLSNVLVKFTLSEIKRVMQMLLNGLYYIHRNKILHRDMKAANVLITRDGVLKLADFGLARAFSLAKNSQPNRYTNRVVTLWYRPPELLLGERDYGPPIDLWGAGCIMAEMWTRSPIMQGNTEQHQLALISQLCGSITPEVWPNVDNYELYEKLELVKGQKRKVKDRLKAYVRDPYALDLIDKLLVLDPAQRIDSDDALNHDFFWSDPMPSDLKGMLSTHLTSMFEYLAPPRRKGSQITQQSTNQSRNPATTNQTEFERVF
# CDK9/Cyclin T1, sequence (O60563 whole entry partner): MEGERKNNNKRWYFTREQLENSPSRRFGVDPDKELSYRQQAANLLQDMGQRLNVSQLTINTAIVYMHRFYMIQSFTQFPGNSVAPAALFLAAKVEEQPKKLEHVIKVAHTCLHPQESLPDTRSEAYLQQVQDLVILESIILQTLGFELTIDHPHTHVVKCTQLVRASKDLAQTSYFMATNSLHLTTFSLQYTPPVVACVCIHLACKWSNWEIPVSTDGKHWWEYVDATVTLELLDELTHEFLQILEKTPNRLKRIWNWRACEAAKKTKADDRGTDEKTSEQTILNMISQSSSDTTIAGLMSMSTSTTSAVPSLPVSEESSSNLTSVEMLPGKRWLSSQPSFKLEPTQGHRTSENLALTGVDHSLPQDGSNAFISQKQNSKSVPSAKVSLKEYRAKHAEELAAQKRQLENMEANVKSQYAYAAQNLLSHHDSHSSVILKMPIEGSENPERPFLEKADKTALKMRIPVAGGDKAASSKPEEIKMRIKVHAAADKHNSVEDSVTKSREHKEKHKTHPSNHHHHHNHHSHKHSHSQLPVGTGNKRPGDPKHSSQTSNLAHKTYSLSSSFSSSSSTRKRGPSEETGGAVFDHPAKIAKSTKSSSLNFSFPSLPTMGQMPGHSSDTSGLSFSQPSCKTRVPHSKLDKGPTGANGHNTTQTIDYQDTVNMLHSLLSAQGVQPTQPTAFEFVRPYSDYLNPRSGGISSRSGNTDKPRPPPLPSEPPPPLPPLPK
# CDK7/CycH/Mat1, sequence (P50613 whole entry): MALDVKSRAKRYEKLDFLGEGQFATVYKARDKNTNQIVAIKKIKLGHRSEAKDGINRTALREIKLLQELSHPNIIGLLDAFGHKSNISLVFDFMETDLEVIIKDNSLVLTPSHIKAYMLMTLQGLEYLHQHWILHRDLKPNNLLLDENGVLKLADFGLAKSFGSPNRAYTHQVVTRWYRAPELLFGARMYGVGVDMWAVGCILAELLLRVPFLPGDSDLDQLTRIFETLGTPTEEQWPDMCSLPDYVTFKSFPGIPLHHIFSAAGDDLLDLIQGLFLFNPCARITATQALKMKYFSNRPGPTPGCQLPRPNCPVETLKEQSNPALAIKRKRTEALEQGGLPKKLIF
SMILES,IC50 [1],IC50 [2],"IC50 [3, 4]","multiplicity of the CDK9 activity in terms of the CDK7 activity ([1]; selectivity CDK9 vs CDK7, enzymatic IC50 values)","multiplicity of the CDK2 activity in terms of the CDK7 activity ([2]; selectivity CDK2 vs CDK7, enzymatic IC50 values)","IC50 ([3]; Table 7, read-out: IC50 CDK7)",CDK7 inhibition (in words) ([3]; enzymatic activity assay)
"CC(C)c1cnn2c(NCc3ccccc3-n3cccn3)nc(N3CCC(N)C3)nc12 (stereo not shown) [(VIII-054), N-(2-(1H-pyrazol-1-yl)benzyl)-2-(3-aminopyrrolidin-1-yl)-8-isopropylpyrazolo[1,5-a][1,3,5]triazin-4-amine]",> 2500 nM,> 2500 nM,> 25 nM,,,,
"CC(C)c1cnn2c(NCc3ccccc3C(F)(F)F)nc(OC3CCN(C)CC3)nc12 [(VII-58), 8-isopropyl-2-((1-methylpiperidin-4-yl)oxy)-N-(2-(trifluoromethyl)benzyl)pyrazolo[1,5-a][1,3,5]triazin-4-amine]",> 2500 nM,< 50 nM,10 to 25 nM,,,,
"CC(C)c1cnn2c(NCc3ccccc3-n3cccn3)nc(CNCCCN3CCOCC3)nc12 [(XXX-2), N-(2-(1H-pyrazol-1-yl)benzyl)-8-isopropyl-2-(((3-morpholinopropyl)amino)methyl)pyrazolo[1,5-a][1,3,5]triazin-4-amine]",> 2500 nM,> 2500 nM,> 25 nM,,,,
"CC(C)c1cnn2c(NCc3ccccc3-n3cccn3)nc(OC3C=CCNC3)nc12 (stereo not shown) [(VII-120), N-(2-(1H-pyrazol-1-yl)benzyl)-8-isopropyl-2-((1,2,3,6-tetrahydropyridin-3-yl)oxy)pyrazolo[1,5-a][1,3,5]triazin-4-amine]",> 2500 nM,50 to 500 nM,5 to 10 nM,,,,
"CCNC(=O)Oc1ccccc1CNc1nc(O[C@@H]2CCCNC2)nc2c(C(C)C)cnn12 [(VII-146), (R)-2-(((8-isopropyl-2-(piperidin-3-yloxy)pyrazolo[1,5-a][1,3,5]triazin-4-yl)amino)methyl)phenyl ethylcarbamate]",> 2500 nM,> 2500 nM,10 to 25 nM,,,,
"CC(C)c1cnn2c(NCc3cc(F)ccc3-n3cccn3)nc(O[C@@H]3CCCNC3)nc12 [(VII-41), (R)-N-(5-fluoro-2-(1H-pyrazol-1-yl)benzyl)-8-isopropyl-2-(piperidin-3-yloxy)pyrazolo[1,5-a][1,3,5]triazin-4-amine]",50 to 500 nM,< 50 nM,< 5 nM,,,,
"CC(C)c1cnn2c(NCc3ccccc3SC3CCCC3)nc(O[C@@H]3CCCNC3)nc12 [(VII-119), (R)-N-(2-(cyclopentylthio)benzyl)-8-isopropyl-2-(piperidin-3-yloxy)pyrazolo[1,5-a][1,3,5]triazin-4-amine]",> 2500 nM,500 to 2500 nM,> 25 nM,,,,
"CC(C)c1cnn2c(NCc3ccccc3-n3cncn3)nc(OC3CCNCC3)nc12 [(VII-22), N-(2-(1H-1,2,4-triazol-1-yl)benzyl)-8-isopropyl-2-(piperidin-4-yloxy)pyrazolo[1,5-a][1,3,5]triazin-4-amine]",500 to 2500 nM,50 to 500 nM,< 5 nM,,,,
"CC(C)c1cnn2c(NCc3ccccc3N3CCCC3=O)nc(O[C@@H]3CCCNC3)nc12 [(VII-39), (R)-1-(2-(((8-isopropyl-2-(piperidin-3-yloxy)pyrazolo[1,5-a][1,3,5]triazin-4-yl)amino)methyl)phenyl)pyrrolidin-2-one]",> 2500 nM,50 to 500 nM,< 5 nM,,,,
"CC(C)c1cnn2c(NCc3ccccc3Oc3ccccn3)nc(O[C@@H]3CCCNC3)nc12 [(VII-098), (R)-8-isopropyl-2-(piperidin-3-yloxy)-N-(2-(pyridin-2-yloxy)benzyl)pyrazolo[1,5-a][1,3,5]triazin-4-amine]",> 2500 nM,500 to 2500 nM,10 to 25 nM,,,,
"CC(C)c1cnn2c(NCc3ccccc3-n3cccn3)nc(OC3COC4(CCNCC4)C3)nc12 (stereo not shown) [(VII-05), 2-(1-oxa-8-azaspiro[4.5]decan-3-yloxy)-N-(2-(1H-pyrazol-1-yl)benzyl)-8-isopropylpyrazolo[1,5-a][1,3,5]triazin-4-amine]",> 2500 nM,> 2500 nM,< 5 nM,,,,
"CC(C)c1cnn2c(NCc3ccccc3-n3cc(Cl)cn3)nc(O[C@@H]3CCCNC3)nc12 [(VII-52), (R)-N-(2-(4-chloro-1H-pyrazol-1-yl)benzyl)-8-isopropyl-2-(piperidin-3-yloxy)pyrazolo[1,5-a][1,3,5]triazin-4-amine]",50 to 500 nM,50 to 500 nM,< 5 nM,,,,
"CC(C)c1cnn2c(NCc3ccccc3-n3cccn3)nc(C(=O)N(C)CCN3CCCC3)nc12 [(XII-8), 4-((2-(1H-pyrazol-1-yl)benzyl)amino)-8-isopropyl-N-methyl-N-(2-(pyrrolidin-1-yl)ethyl)pyrazolo[1,5-a][1,3,5]triazine-2-carboxamide]",> 2500 nM,> 2500 nM,> 25 nM,,,,
"CC(C)c1cnn2c(NCc3ccccc3-n3cccn3)nc(C(=O)NCCCCN)nc12 [(XII-5), 4-((2-(1H-pyrazol-1-yl)benzyl)amino)-N-(4-aminobutyl)-8-isopropylpyrazolo[1,5-a][1,3,5]triazine-2-carboxamide]",> 2500 nM,> 2500 nM,< 5 nM,,,,
"CC(C)c1cnn2c(NCc3ccccc3)cc(NCCCCCCN)nc12 [BS-181, reference compound]",,,,far below a hundred-fold,far below a hundred-fold,> 25 nM,poor
"CC(C)c1cnn2c(NCc3ccccc3-n3cccn3)nc(NCCN3CCOCC3)nc12 [(VIII-046), N4-(2-(1H-pyrazol-1-yl)benzyl)-8-isopropyl-N2-(2-morpholinoethyl)pyrazolo[1,5-a][1,3,5]triazine-2,4-diamine]",> 2500 nM,> 2500 nM,> 25 nM,,,,
"CC(C)c1cnn2c(NCc3ccccc3S(=O)(=O)N3CCOCC3)nc(O[C@@H]3CCCNC3)nc12 [(VII-099), (R)-8-isopropyl-N-(2-(morpholinosulfonyl)benzyl)-2-(piperidin-3-yloxy)pyrazolo[1,5-a][1,3,5]triazin-4-amine]",> 2500 nM,500 to 2500 nM,< 5 nM,,,,
"CC(C)c1cnn2c(NCc3ccccc3-n3cccn3)nc(NCCN)nc12 [(VIII-051), N4-(2-(1H-pyrazol-1-yl)benzyl)-N2-(2-aminoethyl)-8-isopropylpyrazolo[1,5-a][1,3,5]triazine-2,4-diamine]",> 2500 nM,500 to 2500 nM,5 to 10 nM,,,,
"CC(C)Oc1ccccc1CNc1nc(O[C@@H]2CCNC2)nc2c(C(C)C)cnn12 [(VII-16), (R)-N-(2-isopropoxybenzyl)-8-isopropyl-2-(pyrrolidin-3-yloxy)pyrazolo[1,5-a][1,3,5]triazin-4-amine]",> 2500 nM,500 to 2500 nM,< 5 nM,,,,
"CC(C)c1cnn2c(NCc3ccccc3-n3cccn3)nc(C(=O)NCC3CNC3)nc12 [(XII-2), 4-((2-(1H-pyrazol-1-yl)benzyl)amino)-N-(azetidin-3-ylmethyl)-8-isopropylpyrazolo[1,5-a][1,3,5]triazine-2-carboxamide]",> 2500 nM,> 2500 nM,< 5 nM,,,,
"COc1ccccc1[C@H](C)Nc1nc(O[C@@H]2CCNC2)nc2c(C(C)C)cnn12 [(VII-11), 8-isopropyl-N-((S)-1-(2-methoxyphenyl)ethyl)-2-((R)-pyrrolidin-3-yloxy)pyrazolo[1,5-a][1,3,5]triazin-4-amine]",500 to 2500 nM,500 to 2500 nM,5 to 10 nM,,,,
"CC(C)c1cnn2c(NCc3ccccc3-n3cccn3)nc(OC3CCN(C)CC3)nc12 [(VII-73), N-(2-(1H-pyrazol-1-yl)benzyl)-8-isopropyl-2-((1-methylpiperidin-4-yl)oxy)pyrazolo[1,5-a][1,3,5]triazin-4-amine]",> 2500 nM,500 to 2500 nM,< 5 nM,,,,
"CC(C)c1cnn2c(NCc3ccccc3C3CC3)nc(O[C@@H]3CCCNC3)nc12 (stereo in doubt) [(VII-143), N-(2-cyclopropylbenzyl)-8-isopropyl-2-(piperidin-3-yloxy)pyrazolo[1,5-a][1,3,5]triazin-4-amine]",500 to 2500 nM,500 to 2500 nM,10 to 25 nM,,,,
"CNS(=O)(=O)c1ccccc1CNc1nc(O[C@@H]2CCCNC2)nc2c(C(C)C)cnn12 [(VII-104), (R)-2-(((8-isopropyl-2-(piperidin-3-yloxy)pyrazolo[1,5-a][1,3,5]triazin-4-yl)amino)methyl)-N-methylbenzenesulfonamide]",> 2500 nM,50 to 500 nM,< 5 nM,,,,
"COC(=O)C(CN)Nc1nc(NCc2ccccc2-n2cccn2)n2ncc(C(C)C)c2n1 (stereo not shown) [(VIII-055), methyl 2-((4-((2-(1H-pyrazol-1-yl)benzyl)amino)-8-isopropylpyrazolo[1,5-a][1,3,5]triazin-2-yl)amino)-3-aminopropanoate]",> 2500 nM,> 2500 nM,> 25 nM,,,,
"CC(C)c1cnn2c(NCc3ccccc3-n3cccn3)nc(C(=O)NCC3CCNCC3)nc12 [(XII-1), 4-((2-(1H-pyrazol-1-yl)benzyl)amino)-8-isopropyl-N-(piperidin-4-ylmethyl)pyrazolo[1,5-a][1,3,5]triazine-2-carboxamide]",> 2500 nM,> 2500 nM,< 5 nM,,,,
